Measured values as given in ChEMBL document CHEMBL1201862, “PubChem BioAssay data set” (2004).
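In this assay, cells in 96-well plates receive the compound at five concentrations for 48 hours. Endpoints are linearly interpolated between the surrounding concentrations. GI50 marks 50% less growth.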 Active and inactive are the calls of the source. No stated cut-off is given here; in the data, active = GI50 up to about 1.1 µM and inactive = higher.

Tests used:
Experiment in all cases: inhibition of tumour cell growth, NCI panel, 48 h
NCI-H460 = system: NCI-H460
SNB-19 = system: SNB-19
Malme-3M = system: Malme-3M
HL-60 = system: HL-60
U-251 = system: U-251
NCI/ADR-RES = system: NCI/ADR-RES
SK-MEL-5 = system: SK-MEL-5
SNB-75 = system: SNB-75
SN12C = system: SN12C
SF-295 = system: SF-295
NCI-H23 = system: NCI-H23
MDA-MB-435 = system: MDA-MB-435
ACHN = system: ACHN
DU-145 = system: DU-145
SF-539 = system: SF-539
UACC-62 = system: UACC-62
K562 = system: K562
SF-268 = system: SF-268
HT-29 = system: HT-29
UO-31 = system: UO-31

| Structure (SMILES) | GI50 (NCI-H460) | GI50 (SNB-19) | GI50 (Malme-3M) | GI50 (HL-60) | GI50 (U-251) | GI50 (NCI/ADR-RES) | GI50 (SK-MEL-5) | GI50 (SNB-75) | GI50 (SN12C) | GI50 (SF-295) | GI50 (NCI-H23) | GI50 (MDA-MB-435) | GI50 (ACHN) | GI50 (DU-145) | GI50 (SF-539) | GI50 (UACC-62) | GI50 (K562) | GI50 (SF-268) | GI50 (HT-29) | GI50 (UO-31) |
| --- | --- | --- | --- | --- | --- | --- | --- | --- | --- | --- | --- | --- | --- | --- | --- | --- | --- | --- | --- | --- |
| Cc1nn(C(=O)c2ccc(Cl)cc2)c2c1C(c1ccccc1)SC(=N)N2 (stereo not given) | > 10 µM (inactive) | > 10 µM (inactive) | > 10 µM (inactive) | > 10 µM (inactive) | > 10 µM (inactive) | > 10 µM (inactive) | > 10 µM (inactive) | > 10 µM (inactive) | > 10 µM (inactive) | > 10 µM (inactive) | > 10 µM (inactive) | > 10 µM (inactive) | > 10 µM (inactive) | > 10 µM (inactive) | > 10 µM (inactive) | > 10 µM (inactive) | > 10 µM (inactive) | > 10 µM (inactive) | > 10 µM (inactive) |  |
| CC1(C)OCC(C2OC(On3nnc4ccc(Cl)cc43)C3OC(C)(C)OC23)O1 (stereo not given) | > 100 µM (inactive) | > 100 µM (inactive) | > 100 µM (inactive) | > 100 µM (inactive) | > 100 µM (inactive) | > 100 µM (inactive) | > 100 µM (inactive) | 98.9 µM (inactive) | > 100 µM (inactive) | > 100 µM (inactive) | > 100 µM (inactive) | > 100 µM (inactive) | > 100 µM (inactive) | > 100 µM (inactive) | > 100 µM (inactive) | > 100 µM (inactive) | 22.4 µM (inactive) | > 100 µM (inactive) | > 100 µM (inactive) |  |
| COC(=O)C12OCC34C(CC5C(C)=CC(=O)C(O)C5(C)C3C(O)C1O)OC(=O)C(OC(=O)CC(C)C)C24 (stereo not given) | 0.00046 µM (active) | 0.0014 µM (active) | 0.00126 µM (active) | 0.000208 µM (active) | 0.00116 µM (active) | 0.00289 µM (active) | 0.000624 µM (active) | 0.00216 µM (active) | 0.00366 µM (active) | 0.00158 µM (active) | 0.000778 µM (active) | 0.00103 µM (active) | < 0.0371 µM (active) | 0.00083 µM (active) | 0.00064 µM (active) | 0.00223 µM (active) |  | 0.00217 µM (active) | 0.000973 µM (active) | 0.00738 µM (active) |
| CC1=Nc2ccccc2OC(C)=C1/N=N/c1ccc2[nH]c(C)nc2c1 | 55.2 µM (inactive) | > 100 µM (inactive) | > 100 µM (inactive) | > 100 µM (inactive) | > 100 µM (inactive) | > 100 µM (inactive) |  | 25.1 µM (inactive) | 84.7 µM (inactive) | > 100 µM (inactive) | > 100 µM (inactive) | > 100 µM (inactive) | 43.8 µM (inactive) | > 100 µM (inactive) | > 100 µM (inactive) | 83.4 µM (inactive) | > 100 µM (inactive) | > 100 µM (inactive) | > 100 µM (inactive) |  |
| O=C(CC(=O)N(C(=O)/C=C\c1ccccc1)c1ccc(Cl)cc1)N1N=C(c2ccccc2)C(/N=N/c2cccc([N+](=O)[O-])c2)C1=O (stereo not given) | 3.63 µM (inactive) | 13.9 µM (inactive) | 11.3 µM (inactive) | 2.84 µM (inactive) | 5.82 µM (inactive) | 2.18 µM (inactive) |  | 11.9 µM (inactive) | 1.29 µM (inactive) | 5.25 µM (inactive) | 8.28 µM (inactive) | 9.82 µM (inactive) | 5.13 µM (inactive) | 13.3 µM (inactive) | 6.07 µM (inactive) | 3.09 µM (inactive) | 4.65 µM (inactive) | 4.23 µM (inactive) | 2.42 µM (inactive) | > 100 µM (inactive) |
| COc1ccccc1NS(=O)(=O)c1ccc2ncn(NS(=O)(=O)c3ccc(Cl)cc3)c(=O)c2c1 | > 100 µM (inactive) | > 100 µM (inactive) | > 100 µM (inactive) | 85.7 µM (inactive) | > 100 µM (inactive) | > 100 µM (inactive) |  | > 100 µM (inactive) | > 100 µM (inactive) | 17.7 µM (inactive) | > 100 µM (inactive) | > 100 µM (inactive) | > 100 µM (inactive) | > 100 µM (inactive) | > 100 µM (inactive) | 39.1 µM (inactive) | 3.36 µM (inactive) | > 100 µM (inactive) | > 100 µM (inactive) | 35.2 µM (inactive) |
| CCCN(CCC)C(=O)c1c(Cl)c2cccnc2n2c(C)cnc12 | 76.9 µM (inactive) | > 100 µM (inactive) | > 100 µM (inactive) | 23.1 µM (inactive) |  | 50.4 µM (inactive) | 37.8 µM (inactive) | 62.7 µM (inactive) | > 100 µM (inactive) | > 100 µM (inactive) | 90.2 µM (inactive) | 27.2 µM (inactive) | > 100 µM (inactive) | > 100 µM (inactive) | > 100 µM (inactive) | 52.7 µM (inactive) | 26.3 µM (inactive) | 96.2 µM (inactive) | > 100 µM (inactive) | 38.8 µM (inactive) |
| COc1cc(Nc2nc3cc(C(F)(F)F)ccc3nc2C(=O)O)cc(OC)c1OC | 58.1 µM (inactive) | 41.5 µM (inactive) | 54.1 µM (inactive) | 55.2 µM (inactive) | 36.6 µM (inactive) | 41.7 µM (inactive) | 49 µM (inactive) | 10.6 µM (inactive) | 51.2 µM (inactive) | 27.2 µM (inactive) | 45.1 µM (inactive) | 45.6 µM (inactive) | 65.6 µM (inactive) | 35.1 µM (inactive) | 43.6 µM (inactive) | 39.8 µM (inactive) |  | 43.9 µM (inactive) | 49.7 µM (inactive) | 42.7 µM (inactive) |
| COC(=O)c1ccc(NCC2=CC(=O)C=CC2=O)cc1 |  | 14.8 µM (inactive) | 4.55 µM (inactive) | 2.33 µM (inactive) | 13.6 µM (inactive) | 4.38 µM (inactive) | 18.5 µM (inactive) | 16.3 µM (inactive) |  |  | 14.5 µM (inactive) | 11.3 µM (inactive) | 14 µM (inactive) | 15.5 µM (inactive) | 10.9 µM (inactive) | 14.6 µM (inactive) | 2.69 µM (inactive) | 13.7 µM (inactive) | 17.9 µM (inactive) | 7.08 µM (inactive) |
| CSc1c(C(=O)Nc2ccc(C)cc2)c(N)n(N)c(=O)c1C#N | > 100 µM (inactive) | > 100 µM (inactive) | > 100 µM (inactive) | > 100 µM (inactive) | > 100 µM (inactive) | > 100 µM (inactive) | > 100 µM (inactive) | > 100 µM (inactive) | > 100 µM (inactive) |  | > 100 µM (inactive) | > 100 µM (inactive) |  | > 100 µM (inactive) | > 100 µM (inactive) | > 100 µM (inactive) | > 100 µM (inactive) | > 100 µM (inactive) | > 100 µM (inactive) | 60.1 µM (inactive) |
| Cc1nnc(Nc2ccccc2)o1 |  | > 100 µM (inactive) | > 100 µM (inactive) | > 100 µM (inactive) | > 100 µM (inactive) | > 100 µM (inactive) | > 100 µM (inactive) | > 100 µM (inactive) | > 100 µM (inactive) | > 100 µM (inactive) | > 100 µM (inactive) | > 100 µM (inactive) | > 100 µM (inactive) | > 100 µM (inactive) | > 100 µM (inactive) | > 100 µM (inactive) | > 100 µM (inactive) | > 100 µM (inactive) | > 100 µM (inactive) | > 100 µM (inactive) |
